Tests used:
[1] = molecular target: recombinant human kappa opioid receptor (κ) (Homo sapiens (Human), UniProt P41145); test: κ-opioid receptor radioligand binding assay ([3H]-U69,593); conditions: binding affinity
κ-opioid receptor [2] = molecular target: T1, κ-opioid receptor (Homo sapiens (Human), UniProt P41145); test: κ-opioid receptor [35S]GTPγS functional assay, HEK-293 or CHO cells (Table 4); type: biochemical
δ-opioid receptor = δ-opioid receptor (Homo sapiens (Human), UniProt P41143); test: δ-opioid receptor [35S]GTPγS functional assay (Table 4); type: biochemical
δ-opioid receptor, sequence (P41143 whole entry, looked up): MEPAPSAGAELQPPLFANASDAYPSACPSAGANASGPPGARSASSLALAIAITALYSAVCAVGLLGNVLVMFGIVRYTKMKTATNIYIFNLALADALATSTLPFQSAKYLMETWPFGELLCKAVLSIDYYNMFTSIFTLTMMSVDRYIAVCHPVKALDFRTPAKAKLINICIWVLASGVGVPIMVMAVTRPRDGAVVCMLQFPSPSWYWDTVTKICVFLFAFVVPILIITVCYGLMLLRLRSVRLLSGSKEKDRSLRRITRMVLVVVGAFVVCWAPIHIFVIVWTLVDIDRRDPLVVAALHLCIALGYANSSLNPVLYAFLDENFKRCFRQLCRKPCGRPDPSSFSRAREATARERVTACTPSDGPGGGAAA
Experimental: δ-Opioid Receptor Functional Assay Procedures: Functional [^35S]GTPγS binding assays were conducted as follows. δ opioid receptor membrane solution was prepared by sequentially adding final concentrations of 0.026 μg/μl δ membrane protein (Perkin Elmer, Shelton, Conn.), 10 μg/mL saponin, 3 μM GDP and 0.20 nM [^35S]GTPγS to binding buffer (100 mM NaCl, 10 mM MgCl2, 20 mM HEPES, pH 7.4) on ice. The prepared membrane solution (190 μl/well) was transferred to 96-shallow well polypropylene plates containing 10 μl of 20× concentrated stock solutions of agonist prepared in DMSO. Plates were incubated for 30 min at a temperature of about 25° C. with shaking Reactions were terminated by rapid filtration onto 96-well Unifilter GF/B filter plates (Perkin Elmer, Shelton, Conn.) using a 96-well tissue harvester (Packard) and followed by three filtration washes with 200 μl ice-cold binding buffer (10 mM NaH2PO4, 10 mM Na2HPO4, pH 7.4). Filter plates were subsequently dried at 50° C. for 1-2 hours. Fifty μl/well scintillation cocktail (Perkin Elmer, Shelton, Conn.) was added and plates were counted in a Packard Top-count for 1 min/well.
δ GTP Emax (%) is the maximal effect elicited by a compound relative to the effect elicited by met-enkephalin.

κ-opioid receptor [3] = molecular target: T1, κ-opioid receptor; test: κ-opioid receptor [35S]GTPγS functional assay, U-2 OS cells (Table 5); type: biochemical
Outline: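 [35S]GTPγS binding in κ receptor membranes (0.026 μg/μl protein) with 10 μg/mL saponin, 3 μM GDP and 0.20 nM [35S]GTPγS in pH 7.4 HEPES/NaCl/MgCl2 buffer. Agonist incubation lasted 30 min at about 25 °C, followed by filtration and scintillation counting. Emax is expressed relative to U69,593.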

Compound `NC(=O)[C@@H]1C[C@]23CCN(CC4CC4)[C@H](Cc4ccc(O)cc42)[C@]3(O)C1` [Compound 31, (2R,3aS,4R,9bS)-12-(cyclopropylmethyl)-3a,8-dihydroxy-1,2,3,3a,4,5-hexahydro-4,9b-(epiminoethano)cyclopenta-[a]naphthalene-2-carboxamide] has a Ki [1] of 0.84 ± 0.26 nM, an Emax (κ-opioid receptor [2]; relative to U69,593) of 35.3 ± 2.19% and an EC50 (κ-opioid receptor [2]; κ GTP) of 6.95 ± 0.97 nM. The Emax (δ-opioid receptor; relative to met-enkephalin) was 32 ± 3.49%, the EC50 (δ-opioid receptor; δ GTP) was 75.5 ± 13.6 nM and the Emax (κ-opioid receptor [3]; relative to U69,593) was 87.5 ± 5.04%. The EC50 (κ-opioid receptor [3]; κ GTP) was 2.62 ± 0.024 nM.

Source: US9656962B2, “Ring-contracted morphinans and the use thereof” (Purdue Pharma L.P., priority 2013, dated 2017)
